These results are taken from PMC5218480 (PLoS ONE, 2017).

This assay has as its system MV-4-11 cells. The assay is described as follows: Gene expression microarray analysis (Affymetrix PrimeView) and GSEA. Type of assay: cell-based, human. Further details: RFU PODN (11730768_x_at) / Fold change /veh PODN (11730768_x_at) / RFU LINC00158 (11744669_a_at) / Fold change /veh LINC00158 (11744669_a_at) / RFU DUSP10 (11751237_a_at) / Fold change /veh DUSP10 (11751237_a_at) / RFU ID3 (11757404_x_at) / Fold change /veh ID3 (11757404_x_at) / RFU PLEKHG5 (11737974_s_at) / Fold change /veh PLEKHG5 (11737974_s_at) / RFU LRRC4B (11730491_at) / Fold change /veh LRRC4B (11730491_at) / RFU GIMAP4 (11747438_a_at) / Fold change /veh GIMAP4 (11747438_a_at) / RFU KRT8 (11758183_x_at) / Fold change /veh KRT8 (11758183_x_at) / RFU CNN1 (11734310_a_at) / Fold change /veh CNN1 (11734310_a_at) / RFU VPS37D (11726825_at) / Fold change /veh VPS37D (11726825_at) / RFU C10orf10 (11716522_x_at) / Fold change /veh C10orf10 (11716522_x_at) / RFU KIR2DL2 /// KIR2DL4 /// KIR2DL5A /// KIR2DL5B /// KIR2DS1 /// KIR2DS2 /// KIR2DS3 /// KIR2DS4 /// KIR3DL3 /// KIR3DL3 /// KIR3DS1 (11738374_at) / Fold change /veh KIR2DL2 /// KIR2DL4 /// KIR2DL5A /// KIR2DL5B /// KIR2DS1 /// KIR2DS2 /// KIR2DS3 /// KIR2DS4 /// KIR3DL3 /// KIR3DL3 /// KIR3DS1 (11738374_at) / RFU C1QL1 (11718748_at) / Fold change /veh C1QL1 (11718748_at) / RFU TMPRSS4 (11747572_a_at) / Fold change /veh TMPRSS4 (11747572_a_at) / RFU HAMP (11756126_x_at) / Fold change /veh HAMP (11756126_x_at) / RFU RNFT2 (11725882_a_at) / Fold change /veh RNFT2 (11725882_a_at) / RFU NR4A2 (11747474_a_at) / Fold change /veh NR4A2 (11747474_a_at) / RFU ABCC12 (11746883_a_at) / Fold change /veh ABCC12 (11746883_a_at) / RFU TMEM136 (11760407_x_at) / Fold change /veh TMEM136 (11760407_x_at) / RFU CLDN22 /// WWC2 (11732394_at) / Fold change /veh CLDN22 /// WWC2 (11732394_at) / RFU HLA-DPB1 (11760878_x_at) / Fold change /veh HLA-DPB1 (11760878_x_at) / RFU SPINT1 (11716480_a_at) / Fold change /veh SPINT1 (11716480_a_at) / RFU GAP43 (11754022_s_at) / Fold change /veh GAP43 (11754022_s_at) / RFU A4GNT (11735810_at) / Fold change /veh A4GNT (11735810_at) / RFU PRB3 (11715151_x_at) / Fold change /veh PRB3 (11715151_x_at) / RFU TUBB4B (11761932_at) / Fold change /veh TUBB4B (11761932_at) / RFU CAPN14 (11732068_a_at) / Fold change /veh CAPN14 (11732068_a_at) / RFU TMCC2 (11721928_a_at) / Fold change /veh TMCC2 (11721928_a_at) / RFU IRGQ (11745062_a_at) / Fold change /veh IRGQ (11745062_a_at) / RFU FAM174B (11720279_a_at) / Fold change /veh FAM174B (11720279_a_at) / RFU TMPRSS4 (11748680_a_at) / Fold change /veh TMPRSS4 (11748680_a_at) / RFU FAM212B (11763350_a_at) / Fold change /veh FAM212B (11763350_a_at) / RFU PLEKHG5 (11743358_a_at) / Fold change /veh PLEKHG5 (11743358_a_at) / RFU ZSCAN30 (11745921_a_at) / Fold change /veh ZSCAN30 (11745921_a_at) / RFU CMKLR1 (11741424_a_at) / Fold change /veh CMKLR1 (11741424_a_at) / RFU LOC101060620 /// MAPK8IP1 (11723275_at) / Fold change /veh LOC101060620 /// MAPK8IP1 (11723275_at) / RFU SPTSSB (11747773_x_at) / Fold change /veh SPTSSB (11747773_x_at) / RFU PRSS12 (11739890_at) / Fold change /veh PRSS12 (11739890_at) / RFU BIN1 (11741810_x_at) / Fold change /veh BIN1 (11741810_x_at) / RFU WNT11 (11732464_a_at) / Fold change /veh WNT11 (11732464_a_at) / RFU C10orf10 (11716521_a_at) / Fold change /veh C10orf10 (11716521_a_at) / RFU C5orf56 (11738089_at) / Fold change /veh C5orf56 (11738089_at) / RFU CYB561 (11721691_x_at) / Fold change /veh CYB561 (11721691_x_at) / RFU ANKRD19P (11752326_a_at) / Fold change /veh ANKRD19P (11752326_a_at) / RFU OR2T12 /// OR2T33 /// OR2T8 (11738714_s_at) / Fold change /veh OR2T12 /// OR2T33 /// OR2T8 (11738714_s_at) / RFU VCAN (11748164_a_at) / Fold change /veh VCAN (11748164_a_at) / RFU JSRP1 (11732532_at) / Fold change /veh JSRP1 (11732532_at) / RFU KRTAP10-11 (11738290_x_at) / Fold change /veh KRTAP10-11 (11738290_x_at) / RFU MYO3A (11730013_a_at) / Fold change /veh MYO3A (11730013_a_at) / RFU EBF3 (11725865_a_at) / Fold change /veh EBF3 (11725865_a_at) / RFU CAMK2N1 (11719241_x_at) / Fold change /veh CAMK2N1 (11719241_x_at) / RFU C5orf56 (11738088_a_at) / Fold change /veh C5orf56 (11738088_a_at) / RFU OLFML3 (11715873_a_at) / Fold change /veh OLFML3 (11715873_a_at) / RFU LOC100653217 /// NTM (11731650_a_at) / Fold change /veh LOC100653217 /// NTM (11731650_a_at) / RFU MAPK11 (11762145_a_at) / Fold change /veh MAPK11 (11762145_a_at) / RFU FIZ1 (11724087_x_at) / Fold change /veh FIZ1 (11724087_x_at) / RFU OASL (11726364_x_at) / Fold change /veh OASL (11726364_x_at) / RFU SOX15 (11748057_x_at) / Fold change /veh SOX15 (11748057_x_at) / RFU CD79A (11719716_a_at) / Fold change /veh CD79A (11719716_a_at) / RFU HIST1H1D (11736915_at) / Fold change /veh HIST1H1D (11736915_at) / RFU CASKIN2 (11723855_a_at) / Fold change /veh CASKIN2 (11723855_a_at) / RFU LOC730098 (11760151_x_at) / Fold change /veh LOC730098 (11760151_x_at) / RFU OR4N2 (11742367_at) / Fold change /veh OR4N2 (11742367_at) / RFU PRRT2 (11749266_a_at) / Fold change /veh PRRT2 (11749266_a_at) / RFU SNX32 (11753110_a_at) / Fold change /veh SNX32 (11753110_a_at) / RFU CDHR5 (11726645_a_at) / Fold change /veh CDHR5 (11726645_a_at) / RFU RCAN1 (11760418_a_at) / Fold change /veh RCAN1 (11760418_a_at) / RFU FAM167A (11723789_a_at) / Fold change /veh FAM167A (11723789_a_at) / RFU FAM26E (11764081_at) / Fold change /veh FAM26E (11764081_at) / RFU ISYNA1 (11749810_s_at) / Fold change /veh ISYNA1 (11749810_s_at) / RFU ACY1 (11761880_at) / Fold change /veh ACY1 (11761880_at) / RFU 11764098_at / Fold change /veh 11764098_at / RFU SAMD14 (11745864_x_at) / Fold change /veh SAMD14 (11745864_x_at) / RFU NPB (11741838_a_at) / Fold change /veh NPB (11741838_a_at) / RFU TMPRSS6 (11731388_a_at) / Fold change /veh TMPRSS6 (11731388_a_at) / RFU KRTAP10-2 (11738614_at) / Fold change /veh KRTAP10-2 (11738614_at) / RFU ARHGAP8 /// PRR5-ARHGAP8 (11727945_x_at) / Fold change /veh ARHGAP8 /// PRR5-ARHGAP8 (11727945_x_at) / RFU KRTAP5-7 /// NADSYN1 (11734609_at) / Fold change /veh KRTAP5-7 /// NADSYN1 (11734609_at) / RFU RASL12 (11751679_a_at) / Fold change /veh RASL12 (11751679_a_at) / RFU CDKN2B (11736163_a_at) / Fold change /veh CDKN2B (11736163_a_at) / RFU PRF1 (11729649_at) / Fold change /veh PRF1 (11729649_at) / RFU, ZNF638 /// ZNF638-IT1 / Fold change vs veh, ZNF638 /// ZNF638-IT1 / RFU, PANK3 / Fold change vs veh, PANK3 / RFU, SH3YL1 / Fold change vs veh, SH3YL1 / RFU, ZEB2 / Fold change vs veh, ZEB2 / RFU, NRIP1 / Fold change vs veh, NRIP1 / RFU, PTTG1IP / Fold change vs veh, PTTG1IP / RFU, CAPN2 / Fold change vs veh, CAPN2 / RFU, MED14 / Fold change vs veh, MED14 / RFU, SNORA58 / Fold change vs veh, SNORA58 / RFU, C1orf63 / Fold change vs veh, C1orf63 / RFU, LRRFIP1 / Fold change vs veh, LRRFIP1 / RFU, NDUFAF7 / Fold change vs veh, NDUFAF7 / RFU, SLC12A2 / Fold change vs veh, SLC12A2 / RFU, IBTK / Fold change vs veh, IBTK / RFU, ESF1 / Fold change vs veh, ESF1 / Fold change vs veh, TMEM50B / RFU, TAOK1 / Fold change vs veh, TAOK1 / RFU, ACBD3 / Fold change vs veh, ACBD3 / RFU, TMA16 / Fold change vs veh, TMA16 / RFU, RWDD3 / Fold change vs veh, RWDD3 / RFU, BCAT1 / Fold change vs veh, BCAT1 / RFU, EDEM3 / Fold change vs veh, EDEM3 / RFU, TMEM33 / Fold change vs veh, TMEM33 / RFU, WDR75 / Fold change vs veh, WDR75 / RFU, AHCTF1 / Fold change vs veh, AHCTF1 / RFU, TFRC / Fold change vs veh, TFRC / RFU, ZDHHC17 / Fold change vs veh, ZDHHC17 / RFU, NOM1 / Fold change vs veh, NOM1 / RFU, ARL8B / Fold change vs veh, ARL8B / RFU, ZBTB11 / Fold change vs veh, ZBTB11 / RFU, TAMM41 / Fold change vs veh, TAMM41 / RFU, KIAA1704 /// LOC100996395 / Fold change vs veh, KIAA1704 /// LOC100996395 / RFU, ING1 / Fold change vs veh, ING1 / RFU, TRMT61B / Fold change vs veh, TRMT61B / RFU, FUBP3 / Fold change vs veh, FUBP3 / RFU, TP53 / Fold change vs veh, TP53 / RFU, TNKS2 / Fold change vs veh, TNKS2 / RFU, ZFP14 / Fold change vs veh, ZFP14 / RFU, ACTR2 / Fold change vs veh, ACTR2 / RFU, PPP3R1 / Fold change vs veh, PPP3R1 / RFU, PIK3R1 / Fold change vs veh, PIK3R1 / RFU, HNRNPA1 / Fold change vs veh, HNRNPA1 / RFU, RNF170 / Fold change vs veh, RNF170 / RFU, ZNF28 / Fold change vs veh, ZNF28 / RFU, RNGTT / Fold change vs veh, RNGTT / RFU, OGT / Fold change vs veh, OGT / RFU, BRD1 / Fold change vs veh, BRD1 / RFU, MARS / Fold change vs veh, MARS / RFU, ZNF655 / Fold change vs veh, ZNF655 / RFU, FAHD1 / Fold change vs veh, FAHD1 / RFU, BDP1 / Fold change vs veh, BDP1 / RFU, LRRCC1 / Fold change vs veh, LRRCC1 / RFU, ARID1A / Fold change vs veh, ARID1A / RFU, ZNF146 / Fold change vs veh, ZNF146 / RFU, ZNF330 / Fold change vs veh, ZNF330 / RFU, GPN3 / Fold change vs veh, GPN3 / RFU, C9orf123 / Fold change vs veh, C9orf123 / RFU, N4BP2L2 / Fold change vs veh, N4BP2L2 / RFU, ARFIP1 / Fold change vs veh, ARFIP1 / RFU, FAM179B / Fold change vs veh, FAM179B / RFU, BCL10 / Fold change vs veh, BCL10 / RFU, UHRF1BP1L / Fold change vs veh, UHRF1BP1L / RFU, BET1 / Fold change vs veh, BET1 / RFU, CNOT2 / Fold change vs veh, CNOT2 / RFU, ZNF268 / Fold change vs veh, ZNF268 / Fold change vs veh, ZNF507 / RFU, DGCR2 / Fold change vs veh, DGCR2 / RFU, WDSUB1 / Fold change vs veh, WDSUB1 / Fold change vs veh, HSP90B1 /// MIR3652 / RFU, ADSS / Fold change vs veh, ADSS / RFU, GK / Fold change vs veh, GK / RFU, ZNF148 / Fold change vs veh, ZNF148 / RFU, TAF9 / Fold change vs veh, TAF9 / RFU, SLC1A5 / Fold change vs veh, SLC1A5 / RFU, SLMO2 / Fold change vs veh, SLMO2 / RFU, ABCC4 / Fold change vs veh, ABCC4 / RFU, LOC101060439 /// RAP1B / Fold change vs veh, LOC101060439 /// RAP1B / RFU, RFX7 / Fold change vs veh, RFX7 / RFU, GTPBP10 / Fold change vs veh, GTPBP10 / RFU, CNEP1R1 / Fold change vs veh, CNEP1R1 / RFU, BIVM-ERCC5 /// ERCC5 / Fold change vs veh, BIVM-ERCC5 /// ERCC5 / RFU, ILF3 / Fold change vs veh, ILF3 / RFU 11762660_at / Fold change /veh 11762660_at / RFU VCAN (11757783_s_at) / Fold change /veh VCAN (11757783_s_at) / RFU DDX43 (11728927_at) / Fold change /veh DDX43 (11728927_at) / RFU KRT8 (11758188_x_at) / Fold change /veh KRT8 (11758188_x_at) / RFU NKD1 (11759106_at) / Fold change /veh NKD1 (11759106_at) / RFU SRD5A1 (11742802_a_at) / Fold change /veh SRD5A1 (11742802_a_at) / RFU TPSAB1 /// TPSB2 (11721975_s_at) / Fold change /veh TPSAB1 /// TPSB2 (11721975_s_at) / RFU GSTM3 (11746129_a_at) / Fold change /veh GSTM3 (11746129_a_at) / RFU IL23R (11737362_x_at) / Fold change /veh IL23R (11737362_x_at) / RFU TMEM51 (11727254_a_at) / Fold change /veh TMEM51 (11727254_a_at) / RFU PIWIL2 (11732686_x_at) / Fold change /veh PIWIL2 (11732686_x_at) / RFU ORM1 (11744905_x_at) / Fold change /veh ORM1 (11744905_x_at) / RFU CCDC152 (11743942_at) / Fold change /veh CCDC152 (11743942_at) / RFU ECM1 (11717891_a_at) / Fold change /veh ECM1 (11717891_a_at) / RFU IL23R (11748794_a_at) / Fold change /veh IL23R (11748794_a_at) / RFU TNFAIP8L3 (11732012_x_at) / Fold change /veh TNFAIP8L3 (11732012_x_at) / RFU MBOAT4 (11741988_at) / Fold change /veh MBOAT4 (11741988_at) / RFU 11764193_at / Fold change /veh 11764193_at / RFU TMEM53 (11763286_at) / Fold change /veh TMEM53 (11763286_at) / RFU MAGEB2 (11727129_at) / Fold change /veh MAGEB2 (11727129_at) / RFU TMEM200A (11744735_a_at) / Fold change /veh TMEM200A (11744735_a_at) / RFU CCDC152 (11751479_a_at) / Fold change /veh CCDC152 (11751479_a_at) / RFU FAM211A (11726209_a_at) / Fold change /veh FAM211A (11726209_a_at) / RFU RGS16 (11746705_a_at) / Fold change /veh RGS16 (11746705_a_at) / RFU VCAN (11755009_s_at) / Fold change /veh VCAN (11755009_s_at) / RFU RHOB (11743442_s_at) / Fold change /veh RHOB (11743442_s_at) / RFU RGS16 (11720943_a_at) / Fold change /veh RGS16 (11720943_a_at) / RFU RGS16 (11720944_at) / Fold change /veh RGS16 (11720944_at) / RFU, VPS4B / Fold change vs veh, VPS4B / RFU, CREB1 / Fold change vs veh, CREB1 / RFU, DNAJC13 / Fold change vs veh, DNAJC13 / RFU, GNAQ / Fold change vs veh, GNAQ / RFU, CDK5R1 / Fold change vs veh, CDK5R1 / RFU, ZRANB3 / Fold change vs veh, ZRANB3 / RFU, CUL4A / Fold change vs veh, CUL4A / RFU, CCNY / Fold change vs veh, CCNY / RFU, UFL1 / Fold change vs veh, UFL1 / RFU, COG3 / Fold change vs veh, COG3 / RFU, DIAPH2 / Fold change vs veh, DIAPH2 / RFU, SKA2 / Fold change vs veh, SKA2 / RFU, AFF3 / Fold change vs veh, AFF3 / RFU, LMF1 / Fold change vs veh, LMF1 / RFU, IPO11 / Fold change vs veh, IPO11 / RFU, DFFB / Fold change vs veh, DFFB / RFU, FOXP1 / Fold change vs veh, FOXP1 / RFU, CARD8 / Fold change vs veh, CARD8 / RFU, STRN3 / Fold change vs veh, STRN3 / RFU, ADK / Fold change vs veh, ADK / RFU, RASSF2 / Fold change vs veh, RASSF2 / RFU, WIPF1 / Fold change vs veh, WIPF1 / RFU, LARP1B / Fold change vs veh, LARP1B / RFU, RASA1 / Fold change vs veh, RASA1 / RFU, RB1 / Fold change vs veh, RB1 / RFU, PPFIA1 / Fold change vs veh, PPFIA1 / RFU, MAT2A / Fold change vs veh, MAT2A / RFU, CCT5 / Fold change vs veh, CCT5 / RFU, WDR92 / Fold change vs veh, WDR92 / RFU, CUX1 / Fold change vs veh, CUX1 / RFU, TTC7A / Fold change vs veh, TTC7A / RFU, TMEM135 / Fold change vs veh, TMEM135 / RFU, DEPTOR / Fold change vs veh, DEPTOR / RFU, CPM / Fold change vs veh, CPM / RFU, DNAJB6 / Fold change vs veh, DNAJB6 / RFU, CACNA2D3 / Fold change vs veh, CACNA2D3 / RFU, DTX4 / Fold change vs veh, DTX4 / RFU, TFCP2 / Fold change vs veh, TFCP2 / RFU, GMCL1 /// GMCL1P1 / Fold change vs veh, GMCL1 /// GMCL1P1 / RFU, AEBP2 / Fold change vs veh, AEBP2 / RFU, SNHG1 /// SNORD22 /// SNORD25 /// SNORD26 /// SNORD27 /// SNORD28 /// SNORD29 /// SNORD31 / Fold change vs veh, SNHG1 /// SNORD22 /// SNORD25 /// SNORD26 /// SNORD27 /// SNORD28 /// SNORD29 /// SNORD31 / Fold change (Aza/veh), C12orf56 (ProbeSet 11735607_a_at) / Fold change (ACY-1035/veh), C12orf56 (ProbeSet 11735607_a_at) / Fold change (Aza/veh), FGFR1OP (ProbeSet 11751329_s_at) / Fold change (ACY-1035/veh), FGFR1OP (ProbeSet 11751329_s_at) / Fold change (Aza/veh), VPS36 (ProbeSet 11739960_a_at) / Fold change (ACY-1035/veh), VPS36 (ProbeSet 11739960_a_at) / RFU SYPL1 (11715823_x_at) / Fold change /veh SYPL1 (11715823_x_at) / RFU IGFBP7 (11715501_s_at) / Fold change /veh IGFBP7 (11715501_s_at) / RFU REEP3 (11722064_at) / Fold change /veh REEP3 (11722064_at) / RFU IGLL1 (11728026_x_at) / Fold change /veh IGLL1 (11728026_x_at): dose or concentration left out as unconfirmed. The following applies: ProbeSet 11743362_s_at; LIST B.

Take `Nc1ncn([C@@H]2O[C@H](CO)[C@@H](O)[C@H]2O)c(=O)n1` [azacitidine]: the “RFU, ADSS” value was found to be 624.28 RFU.
